Laboratory results: patent publication US6534503B1, “Melanocortin receptor-3 ligands to treat sexual dysfunction” (Lion Bioscience AG, priority 1998, dated 2003)

How the values were obtained:
male Sprague-Dawley rats [1] = test: Effect of oxytocin receptor antagonist vasotocin on erectile effects in rats; format: in vivo; conditions: rat
Source text: (§1) In both examples, male Sprague-Dawley rats, about 200 to 225 g, were acclimated for 5 days in a reverse light:dark cycle room (dark 10 a.m. to 10 p.m.) before being aseptically ICV cannulated. Rats with indwelling ICV cannulae were housed one per cage. After surgery, 4 days were allowed for recovery and 10 days total were allowed for adaptation to the light cycle. Rats were caged individually after surgery and body weights at the time of treatment averaged 250 g. Otherwise, the procedure is essentially the same as in Example II.
Treatment was between 10 a.m. and 1 p.m. […] Vasotocin (Peninsula Laboratories, San Carlos Calif.) was administered ICV at 100 ng/rat. Oxytocin (Sigma, St. Louis Mo.) was administered ICV at 30 ng/rat (10 μl/rat PBS). Ten minutes later, IP injections of HP-228 or vehicle were given. HP-228 was administered IP at 2 mg/kg in 3 ml/kg PBS. One group of animals received ICV injections of vasotocin and oxytocin ICV injections of 5 μl/rat each at double concentrations for a total of 10 μl injected ICV. In this group, the rats received vasotocin first, followed by oxytocin.

male Sprague-Dawley rats [2] = test: Effect of dopamine receptor antagonist sulpiride on erectile effects in rats; format: in vivo; conditions: rat
Source text: as §1
Treatment was between 9:30 a.m. and noon. Each animal received an initial IP injection of vehicle (3 ml/kg PBS) or sulpiride. Sulpiride (Sigma) was administered IP at 50 mg/kg (6 ml/kg IP). Ten minutes later, the animals received a final IP injection of HP-228 or vehicle or a SC injection of apomorphine. HP-228 was administered IP at 2 mg/kg in 3 ml/kg PBS. Apomorphine (Sigma) was administered SC at 0.1 mg/kg (1 ml/kg sterile water).

Adult male rats = test: Induction of penile erections in rats after intraperitoneal injection, 60 minute observation; format: in vivo; conditions: IP injection of compound alone, 60 min observation, n=6
Protocol: Adult male rats were housed 2 to 3 per cage and were acclimated to the standard vivarium light cycle (12 hr. light, 12 hr. dark), rat chow and water for a least a week prior to testing. All experiments were performed between 9 a.m. and noon and rats were placed in cylindrical, clear plexiglass chambers during the 60 minute observation period. Mirrors were positioned below the chambers to improve viewing.
Observations began 5 minutes after an intraperitoneal injection of either saline or compound. Two observers counted the number of grooming motions, stretches, yawns and spontaneously occurring penile erections not elicited by genital grooming, and then recorded them as they occurred for a total of 60 minutes. Each observer recorded behaviors of 6 rats at the same time. The observers were unaware of the treatment and animals were tested once, with n=6 in each group. HP-228 was used as a positive control for penile erections.
By comparison, IP injection with agonist TRG 2411 #203 alone (shown below) increased the average number of erections observed to 2.7.

Sprague-Dawley rats = test: Association of MC-3 with erectile response: HP-228 IP with MC-3-specific antagonist ICV in rats; format: in vivo; conditions: rat, HP-228 1.8 mg/kg IP, PBS ICV (no MC-3 antagonist), n=5
Protocol: Sprague-Dawley rats (n=5) received 1.8 mg/kg HP-228 or PBS via IP injection. The rats also received via ICV injection a dose of PBS or MC-3-specific antagonist at 10 μg/5 μl. […] After administration, the rats were observed as described above. All rats received an ICV injection followed by an IP injection 5 to 10 minutes later.
In the negative control rats, receiving only PBS, 0.3 erections per hour were observed. In the positive control rats, receiving HP-228 but no MC-3 antagonist, 3.8 erections per hour were observed.

C57/BL6 mice = test: Dose-response of HP-228 for inducing erections in mice; format: in vivo; conditions: mouse, IP
Protocol: (§2) Adult male Sprague-Dawley rats weighing 220 to 250 g or adult male C57/BL6 mice (Harlan Laboratories; Indianapolis Ind.) were injected intraperitoneally (IP) with 1 ml/kg body weight HP-228 solution or PBS as a negative control. Concentrations of HP-228 were 0.45, 0.9, 1.8, 3.6 and 7.2 mg/ml/kg (n=4 to 6 animals). The animals were allowed 10 minutes to acclimate to the surroundings before observation. The animals were then observed for 60 minutes for penile erections not induced by grooming. Yawning, stretching, grooming behaviors were also recorded.
This example describes a dose-response correlation for using HP-228 to induce erections in mice (n=3 to 5). Age-matched C57/BL6 mice (Harlan Laboratories; Indianapolis Ind.) weighing 20 to 25 g were injected (100 μl/mouse) intraperitoneally essentially as described above and observed.

Rats = test: HP-228-mediated erectile response with MC-3 antagonist TRG 6601 #15—2 ICV in rats; format: in vivo; conditions: rat, PBS ICV, HP-228 2 mg/kg/ml IP
Protocol: Rats were obtained and cannulated essentially as described in Example VII. Rats received a 10 μl injection ICV containing antagonist “TRG 6601 #15—2” or vehicle alone. The compound was administered as a 1 mg/ml solution in 5% EtOH/PBS at a dose of […]. Five minutes later, the rats were injected IP with either PBS (1 ml/kg) or HP-228 (2 mg/kg/ml). The animals were observed as in Example VII. Erections per hour and rate of animals responding are shown: […]

[3] = tested on: Adult male Sprague-Dawley rats; test: Dose-response of HP-228 for inducing erections in rats; format: in vivo; conditions: rat, IP
Protocol: This example describes a dose-response correlation for using HP-228 to induce erections in rats.
as §2

human subjects = conditions: pilot phase I clinical studies (Dorr et al. 1996; Wessells et al. 1998); cited from earlier work
[4] = single agent plus PBS: oxytocin 30 ng/rat ICV, HP-228 2 mg/kg IP, vasotocin 100 ng/rat ICV
[5] = single agent plus PBS: apomorphine 0.1 mg/kg SC, HP-228 2 mg/kg IP, sulpiride 50 mg/kg IP

Substance	response rate, % of animals (male Sprague-Dawley rats [1]; oxytocin and HP-228 groups)	erections per hour (male Sprague-Dawley rats [1]; [4]) [erections per hour]	responder rate of animals (rats responding out of rats) (male Sprague-Dawley rats [1]; [4])	response rate, % of animals (male Sprague-Dawley rats [2]; apomorphine and HP-228 groups) [%]	erections per hour (male Sprague-Dawley rats [2]; [5]) [erections per hour]	rate of animals responding (male Sprague-Dawley rats [2]; [5])	average erections observed per rat per hour (Adult male rats)	erections per hour (Sprague-Dawley rats) [erections per hour]	avg. erections observed/hour (C57/BL6 mice; 25 μg/mouse HP-228) [erections/hour]	avg. erections observed/hour (C57/BL6 mice; 50 μg/mouse HP-228) [erections/hour]	avg. erections observed/hour (C57/BL6 mice; 100 μg/mouse HP-228) [erections/hour]	avg. erections observed/hour (C57/BL6 mice; 250 μg/mouse HP-228) [erections/hour]	erections per hour (Rats) [erections per hour]	rate of animals responding (Rats)	avg. erections observed/hour ([3]; 0.45 mg/ml/kg HP-228, 60 min observation) [erections/hour]	avg. erections observed/hour ([3]; 0.9 mg/ml/kg HP-228, 60 min observation) [erections/hour]	avg. erections observed/hour ([3]; 1.8 mg/ml/kg HP-228, 60 min observation) [erections/hour]	avg. erections observed/hour ([3]; 3.6 mg/ml/kg HP-228, 60 min observation) [erections/hour]	avg. erections observed/hour ([3]; 7.2 mg/ml/kg HP-228, 60 min observation) [erections/hour]	penile erections in human subjects (human subjects)
Ac-Nle-Gln-His-(D)Phe-Arg-(D)Trp-Gly-NH2 [HP-228]	88%-100%	4.9	7/8	100	7.3	5/5	4.8 erections per rat per hour	3.8	3.00	6.67	5.33	3.00	4.7	6/6	2.80	2.60	3.67	7.00	5.75	
MELANOTAN-II																				cause penile erections
